Experimental data taken from patent US20100075960A1 (priority 2006, published 2010).

Columns and labels:
Type in all cases: cell-based
MiaPaca = assay: Inhibition of cell proliferation, MiaPaca; details: Homo sapiens, MIA PaCa-2; Pancreatic; 72 h; methylene blue or CellTiter-Glo
Procedure: (§1) II. Inhibition of Cell Proliferation by PLK1 Inhibitors.
(§2) Exponentially growing cell lines of different tumor origins, cultured in appropriate media containing 10% fetal bovine serum at 37° C. in a 5% CO2 incubator were plated in 96 or 384-well plates. Twenty four hours post-plating, cells were treated with different concentrations of test compounds ranging from 20 μM to 0.04 nM. Several wells were left untreated as a control. Seventy two hours post-treatment, cell numbers were determined using different techniques; 100 μl per well of methylene blue (Sigma M9140) (0.5% in 50:50 Ethanol:water), or 10-100 μl per well of CellTiter-Glo (Promega #G7573), depending on well size. For methylene blue staining, stain was incubated at room temperature for 30 minutes before plates were rinsed and dye solubilized in 1% N-lauroyl sarcosine, sodium salt, (Sigma L5125, in PBS). Plates were read on a microplate reader, measuring the OD at 620 nm. For CellTiter-Glo, plates were incubated at room temperature for 15 minutes and the chemiluminescent signal was read on the Victor V or Envison 2100 reader.
(§3) Percent inhibition of cell growth was expressed as percent proliferation relative to 100% proliferation (control). […]

HCT116 = assay: Inhibition of cell proliferation, HCT116; details: Homo sapiens, HCT-116; 72 h treatment; methylene blue or CellTiter-Glo
PANC-1 = assay: Inhibition of cell proliferation, PANC-1; details: Homo sapiens, pancreatic, 72 h, methylene blue or CellTiter-Glo
Procedure: as §1, §2, §3

MCF7 = assay: Inhibition of cell proliferation, MCF7; details: Homo sapiens, Breast, 72 h, methylene blue or CellTiter-Glo
Procedure: as §1, §2, §3

BT549 = assay: Inhibition of cell proliferation, BT549; details: Homo sapiens, BT-549; breast; 72 h; methylene blue or CellTiter-Glo
Procedure: as §1, §2, §3

A431 = assay: Inhibition of cell proliferation, A431; details: Homo sapiens, A-431; skin; 72 h; methylene blue or CellTiter-Glo
Procedure: as §1, §2, §3

SKMEL5 = assay: Inhibition of cell proliferation, SKMEL5; details: Homo sapiens, SK-MEL-5; skin; 72 h; methylene blue or CellTiter-Glo
Procedure: as §1, §2, §3

MDA-MB-468 = assay: Inhibition of cell proliferation, MDA-MB-468; details: Homo sapiens, Breast, 72 h, methylene blue or CellTiter-Glo
Procedure: as §1, §2, §3

A498 = assay: Inhibition of cell proliferation, A498; details: Homo sapiens, kidney, 72 h, methylene blue or CellTiter-Glo
Procedure: as §1, §2, §3

BXPC3 = assay: Inhibition of cell proliferation, BXPC3; details: Homo sapiens, BXPC-3; Pancreatic; 72 h; methylene blue or CellTiter-Glo
Procedure: as §1, §2, §3

Hela = assay: Inhibition of cell proliferation, Hela; details: Homo sapiens, Cervical, 72 h, methylene blue or CellTiter-Glo
Procedure: as §1, §2, §3

HN5 = assay: Inhibition of cell proliferation, HN5; details: 72 h
Procedure: as §1, §2
(§4) Percent inhibition of cell growth was expressed as percent proliferation relative to 100% proliferation (control). Concentration of test compound that inhibited 50% of cell growth (IC50) was determined by 4 parameter fit of data using XLfit, (value of no cell control was substracted from all samples for background). The data are shown in Table 1 and Table 2 below and represent a compilation of several different experiments each performed using the general parameters outlined above, although minor variations may have been employed in some instances, in Table 1 and Table 2, +=IC50>1 μM; ++=IC50 0.5-1 μM: +++=IC50<0.5 μM.

A2780 = assay: Inhibition of cell proliferation, A2780; details: Homo sapiens, ovary, 72 h, methylene blue or CellTiter-Glo
Procedure: as §1, §2, §3

T24 = assay: Inhibition of cell proliferation, T24; details: Homo sapiens, T-24; urinary bladder; 72 h; methylene blue or CellTiter-Glo
Procedure: as §1, §2, §3

MALME-3M = assay: Inhibition of cell proliferation, MALME-3M; details: Homo sapiens, skin, derived from lung, 72 h, methylene blue or CellTiter-Glo
Procedure: as §1, §2, §3

HT-1080 = assay: Inhibition of cell proliferation, HT-1080; details: Homo sapiens, connective tissue, 72 h, methylene blue or CellTiter-Glo
Procedure: as §1, §2, §3

SKMEL28 = assay: Inhibition of cell proliferation, SKMEL28; details: Homo sapiens, SK-MEL-28; skin; 72 h; methylene blue or CellTiter-Glo
Procedure: as §1, §2, §3

HCC1937 = assay: Inhibition of cell proliferation, HCC1937; details: Homo sapiens, breast, 72 h, methylene blue or CellTiter-Glo
Procedure: as §1, §2, §3

RPMI 8226 = assay: Inhibition of cell proliferation, RPMI 8226; details: Homo sapiens, leukemia, 72 h, methylene blue or CellTiter-Glo
Procedure: as §1, §2, §3

SW156 = assay: Inhibition of cell proliferation, SW156; details: kidney; 72 h; methylene blue or CellTiter-Glo
Procedure: as §1, §2, §3

Saos-2 = assay: Inhibition of cell proliferation, Saos-2; details: Homo sapiens, bone, 72 h, methylene blue or CellTiter-Glo
Procedure: as §1, §2, §3

P388 = assay: Inhibition of cell proliferation, P388; details: Mouse leukemia, 72 h, methylene blue or CellTiter-Glo
Procedure: as §1, §2, §4

EB-3 = assay: Inhibition of cell proliferation, EB-3; details: Homo sapiens, peripheral blood, 72 h, methylene blue or CellTiter-Glo
Procedure: as §1, §2, §3

LNCaP = assay: Inhibition of cell proliferation, LNCaP; details: Homo sapiens, Prostate, 72 h, methylene blue or CellTiter-Glo
Procedure: as §1, §2, §3

BT474 = assay: Inhibition of cell proliferation, BT474; details: Homo sapiens, BT-474; breast; 72 h; methylene blue or CellTiter-Glo
Procedure: as §1, §2, §3

BC-1 = assay: Inhibition of cell proliferation, BC-1; details: Homo sapiens, BC1; peripheral blood; 72 h; methylene blue or CellTiter-Glo
Procedure: as §1, §2, §3

MX-1 = assay: Inhibition of cell proliferation, MX-1; details: Homo sapiens, MX1; Breast; 72 h; methylene blue or CellTiter-Glo
Procedure: as §1, §2, §4

CEM/C1 = assay: Inhibition of cell proliferation, CEM/C1; details: peripheral blood, 72 h, methylene blue or CellTiter-Glo
Procedure: as §1, §2, §3

- IC50 (MiaPaca): < 500 nM
- IC50 (HCT116): < 500 nM
- IC50 (PANC-1): < 500 nM
- IC50 (MCF7): < 500 nM
- IC50 (BT549): < 500 nM
- IC50 (A431): < 500 nM
- IC50 (SKMEL5): < 500 nM
- IC50 (MDA-MB-468): < 500 nM
- IC50 (BXPC3): < 500 nM
- IC50 (Hela): < 500 nM
- IC50 (A2780): < 500 nM
- IC50 (T24): < 500 nM
- IC50 (HT-1080): < 500 nM
- IC50 (SKMEL28): > 1000 nM
- IC50 (HCC1937): > 1000 nM
- IC50 (SW156): > 1000 nM
- IC50 (P388): < 500 nM
- IC50 (LNCaP): < 500 nM
- IC50 (BT474): > 1000 nM
Structure (SMILES): C[C@@H](Oc1cc(-n2cnc3cc(-c4cnn(C)c4)ccc32)sc1C(N)=O)c1cccc(OC2CCN(C)CC2)c1Cl [Example 48]
- IC50 (A498): < 500 nM
- IC50 (HN5; Homo sapiens, Head and neck, Table 2 first HN5 line): < 500 nM
- IC50 (HN5; head/neck, Table 2 second HN5 line): < 500 nM
- IC50 (MALME-3M): > 1000 nM
- IC50 (RPMI 8226): < 500 nM
- IC50 (Saos-2): < 500 nM
- IC50 (EB-3): < 500 nM
- IC50 (BC-1): < 500 nM
- IC50 (MX-1): < 500 nM
- IC50 (CEM/C1): < 500 nM
